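1) Cells in 96-well plates. 2) Compound, 48 h, 5 concentrations. 3) Linear interpolation between surrounding doses. 4) Unreached endpoint = highest concentration. TGI: concentration producing complete growth inhibition.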

Among the test systems are HOP-92 NSCLC; IGROV1 ovarian; U251 CNS; SF-295 CNS; HCC-2998 colon; SK-MEL-2 melanoma; NCI-H522 lung; EKVX NSCLC; MCF7 breast; OVCAR-5 ovarian; ACHN renal; SW-620 colon; RPMI-8226 leukemia; MDA-N; CCRF-CEM leukemia; RXF 393 renal; HOP-62 NSCLC; LOX IMVI melanoma.
Experiment in all cases: NCI-60 cell line screen, 48 h

Consider `COc1ccc(NS(=O)(=O)c2ccc3ncn(NS(=O)(=O)c4ccc(I)cc4)c(=O)c3c2)cc1`, for which the TGI in the assay on HOP-92 NSCLC, with IGROV1 ovarian, with U251 CNS, in the assay with SF-295 CNS, with HCC-2998 colon and with SK-MEL-2 melanoma was over 100 µM throughout. Further, the TGI in the assay with NCI-H522 lung, in the assay with EKVX NSCLC, in the assay on MCF7 breast, with OVCAR-5 ovarian, in the assay on ACHN renal and in the assay on SW-620 colon was over 100 µM throughout. Also, the TGI with RPMI-8226 leukemia, in the assay on MDA-N, in the assay on CCRF-CEM leukemia, in the assay with RXF 393 renal, with HOP-62 NSCLC and in the assay on LOX IMVI melanoma was over 100 µM in each case.
Regarding `CCOC(=O)c1sc2c(c1OC(=O)c1ccc(Cl)cc1Cl)c(=O)n(-c1ccccc1)c(=S)n2-c1ccccc1`, the TGI was 26 µM with HOP-92 NSCLC; over 40.9 µM in the assay on IGROV1 ovarian; over 56.1 µM in the assay on U251 CNS; over 100 µM with SF-295 CNS; over 74.6 µM in the assay with HCC-2998 colon; 18.6 µM with SK-MEL-2 melanoma. In addition, the TGI in the assay with NCI-H522 lung is over 100 µM; with EKVX NSCLC, 97.2 µM; in the assay with MCF7 breast, over 100 µM; in the assay with OVCAR-5 ovarian, over 100 µM; with ACHN renal, over 100 µM; in the assay with SW-620 colon, over 100 µM. In addition, the TGI was over 54.5 µM with RPMI-8226 leukemia; 68.7 µM in the assay on MDA-N; over 100 µM in the assay with CCRF-CEM leukemia; over 100 µM in the assay on RXF 393 renal; over 100 µM in the assay on HOP-62 NSCLC; over 81.1 µM in the assay on LOX IMVI melanoma.
Take `COc1ccc(-c2nc(SCC(=O)N/N=C/c3ccc([N+](=O)[O-])cc3)[nH]c2-c2ccc(OC)cc2)cc1`: the TGI in the assay with HOP-92 NSCLC is over 61.3 µM; in the assay on IGROV1 ovarian, 74.8 µM; in the assay on U251 CNS, 29.4 µM; in the assay with SF-295 CNS it was over 69 µM; in the assay with HCC-2998 colon, 31.5 µM; with SK-MEL-2 melanoma it was 20.5 µM. Besides, the TGI in the assay on NCI-H522 lung is 29.7 µM; in the assay with EKVX NSCLC, 98.8 µM; with MCF7 breast, 20.6 µM; in the assay with OVCAR-5 ovarian it was 60.7 µM; with ACHN renal, 99.4 µM; with SW-620 colon it was over 65.7 µM. In addition, the TGI in the assay on RPMI-8226 leukemia was 62 µM; in the assay with MDA-N it was 12.9 µM; with CCRF-CEM leukemia, over 22.1 µM; in the assay on RXF 393 renal, 56.6 µM; in the assay on HOP-62 NSCLC it was over 100 µM; in the assay with LOX IMVI melanoma, 44.1 µM.
As for `COc1cc(/C=C2\N=C(c3ccccc3)N(c3ccc4c(c3)Sc3cc(N5C(=O)/C(=C/c6cc(OC)c(OC)c(OC)c6)N=C5c5ccccc5)ccc3N4)C2=O)cc(OC)c1OC`, the TGI with HOP-92 NSCLC amounted to 40.6 µM; in the assay with IGROV1 ovarian, 32 µM; in the assay with U251 CNS, 44.2 µM; in the assay on SF-295 CNS, 47.9 µM; in the assay with HCC-2998 colon it was 50.6 µM; with SK-MEL-2 melanoma, 36.5 µM. The TGI with NCI-H522 lung was 42.5 µM; in the assay on EKVX NSCLC, 54.6 µM; in the assay on MCF7 breast, 37.1 µM; in the assay on OVCAR-5 ovarian, 39.6 µM; in the assay with ACHN renal, 36.4 µM; in the assay with SW-620 colon it was over 100 µM. The TGI turned out to be 88.9 µM in the assay with RPMI-8226 leukemia; 37.9 µM in the assay on MDA-N; 57.3 µM with CCRF-CEM leukemia; 46.1 µM with RXF 393 renal; 60.2 µM in the assay on HOP-62 NSCLC; 52 µM with LOX IMVI melanoma.
`COc1ccc(/C=C2\N=C(N3CCOCC3)NC2=O)cc1`: the TGI with HOP-92 NSCLC, in the assay with IGROV1 ovarian, in the assay on U251 CNS, with SF-295 CNS, in the assay on HCC-2998 colon and in the assay with SK-MEL-2 melanoma was over 100 µM throughout. Also, the TGI with NCI-H522 lung, in the assay on EKVX NSCLC, in the assay on MCF7 breast, in the assay on OVCAR-5 ovarian, in the assay with ACHN renal and with SW-620 colon was over 100 µM throughout. For the same compound, the TGI in the assay on RPMI-8226 leukemia, in the assay on MDA-N, in the assay with CCRF-CEM leukemia, in the assay with RXF 393 renal, in the assay with HOP-62 NSCLC and with LOX IMVI melanoma was over 100 µM each time.
Take `Brc1ccc(N=C/C=C(\Nc2ccc(Br)cc2)C23CC4CC(CC(C4)C2)C3)cc1`: the TGI was 31.5 µM in the assay with HOP-92 NSCLC; 28 µM in the assay on IGROV1 ovarian; 28.7 µM in the assay with U251 CNS; over 92 µM in the assay on SF-295 CNS; 35.8 µM with HCC-2998 colon; 28.3 µM in the assay on SK-MEL-2 melanoma. Also, the TGI with NCI-H522 lung is 30.5 µM; in the assay with EKVX NSCLC, 56.2 µM; with MCF7 breast it was 28.4 µM; in the assay on OVCAR-5 ovarian it was over 67.8 µM; with ACHN renal, 23.2 µM; with SW-620 colon it was 92.1 µM. The TGI with RPMI-8226 leukemia was over 100 µM; in the assay with MDA-N, 34.9 µM; in the assay on CCRF-CEM leukemia it was 4.5 µM; with RXF 393 renal it was 29 µM; in the assay with HOP-62 NSCLC it was 43.6 µM; with LOX IMVI melanoma, 21.8 µM.
For `Cc1ccc2[nH]c3c(C)c4cc[n+](C)cc4c(C)c3c2c1`, the TGI in the assay on HOP-92 NSCLC turned out to be 33.7 µM; in the assay on IGROV1 ovarian it was 32.2 µM; with U251 CNS, 2.11 µM; in the assay with SF-295 CNS, 4.19 µM; in the assay on HCC-2998 colon it was 10.1 µM; in the assay with SK-MEL-2 melanoma, 4.71 µM. Also, the TGI is 3.9 µM with NCI-H522 lung; 10.3 µM with EKVX NSCLC; over 23.8 µM in the assay with MCF7 breast; 77.1 µM with OVCAR-5 ovarian; 57.9 µM with ACHN renal; 12.2 µM in the assay on SW-620 colon. Further, the TGI in the assay on RPMI-8226 leukemia was over 59.7 µM; in the assay with MDA-N, 22.1 µM; in the assay with CCRF-CEM leukemia, 40.3 µM; with RXF 393 renal it was 18.3 µM; in the assay with HOP-62 NSCLC, 3.28 µM; in the assay with LOX IMVI melanoma, 28.9 µM.

The values above are taken from PubChem BioAssay (NCI).
